According to ChEMBL document CHEMBL6078667, “Synthesis, Biological Evaluation, and Mechanistic Insights of Rubrolide Analogues as Antitumor Agents” (J Nat Prod, 2024):
One block for each compound: values may come before it.

What was measured:
[1] = system: U-87 MG; assay: Cytotoxicity against human U-87 MG cells assessed as survival rate at 10 uM measured after 72 hrs by MTT assay relative to control; type: functional, U-87MG ATCC; settings: read-out: Survival
[2] = system: HCT-116; assay: Cytotoxicity against human HCT-116 cells assessed as survival rate at 10 uM measured after 72 hrs by MTT assay relative to control; type: functional; settings: read-out: Survival
[3] = system: MCF7; assay: Cytotoxicity against human MCF7 cells assessed as survival rate at 10 uM measured after 72 hrs by MTT assay relative to control; type: functional; settings: read-out: Survival
[4] = system: MKN-45; assay: Cytotoxicity against human MKN-45 cells assessed as inhibition of cell growth incubated for 72 hrs by MTT assay; type: functional, cell-based; settings: MKN-45, 72 h
[5] = system: HCT-116; assay: Cytotoxicity against human HCT-116 cells assessed as inhibition of cell growth at 10 uM measured after 72 hrs by MTT assay relative to control; type: functional
[6] = Cytotoxicity against HHL-5 cells assessed as inhibition of cell growth incubated for 72 hrs by MTT assay; type: toxicity, cell-based; settings: human
[7] = system: MCF7; assay: Cytotoxicity against human MCF7 cells assessed as inhibition of cell growth at 10 uM measured after 72 hrs by MTT assay relative to control; type: functional
[8] = system: HeLa; assay: Cytotoxicity against human HeLa cells assessed as inhibition of cell growth at 10 uM measured after 72 hrs by MTT assay relative to control; type: functional
[9] = system: MGC-803; assay: Cytotoxicity against human MGC-803 cells assessed as inhibition of cell growth at 10 uM measured after 72 hrs by MTT assay relative to control; type: functional
[10] = system: U-87 MG; assay: Cytotoxicity against human U-87 MG cells assessed as inhibition of cell growth at 10 uM measured after 72 hrs by MTT assay relative to control; type: functional, U-87MG ATCC
[11] = system: U-87 MG; assay: Cytotoxicity against human U-87 MG cells assessed as inhibition of cell growth incubated for 72 hrs by MTT assay; type: functional, cell-based, U-87MG ATCC
[12] = system: HeLa; assay: Cytotoxicity against human HeLa cells assessed as inhibition of cell growth incubated for 72 hrs by MTT assay; type: functional, cell-based
[13] = system: MGC-803; assay: Cytotoxicity against human MGC-803 cells assessed as inhibition of cell growth incubated for 72 hrs by MTT assay; type: functional, cell-based; settings: MGC-803, 72 h
[14] = system: MCF7; assay: Cytotoxicity against human MCF7 cells assessed as inhibition of cell growth incubated for 72 hrs by MTT assay; type: functional, cell-based; settings: MCF7, 72 h
[15] = system: MKN-45; assay: Cytotoxicity against human MKN-45 cells assessed as inhibition of cell growth at 10 uM measured after 72 hrs by MTT assay relative to control; type: functional
[16] = system: HCT-116; assay: Cytotoxicity against human HCT-116 cells assessed as inhibition of cell growth incubated for 72 hrs by MTT assay; type: functional, cell-based; settings: HCT-116, 72 h
[17] = system: HT-29; assay: Antitumor activity against human HT-29 cells; type: functional, cell-based
[18] = system: K562; assay: Antitumor activity against human K562 cells; type: functional, cell-based
[19] = system: A549; assay: Antitumor activity against human A549 cells; type: functional, cell-based
[20] = system: P388; assay: Antitumor activity against mouse P388 cells; type: functional, cell-based

SMILES: COc1cc(/C=C2\OC(=O)C=C2c2ccccc2)ccc1O
viability at 10 µM [1]: 99.8%
viability at 10 µM [2]: 137%
viability at 10 µM [3]: 102%

SMILES: CC(=O)Nc1ccc(/C=C2\OC(=O)C=C2c2ccccc2)cc1
viability at 10 µM [1]: 90.3%
viability at 10 µM [2]: 87.2%
viability at 10 µM [3]: 92.2%

SMILES: COc1ccc(C2=CC(=O)O/C2=C\c2ccc3ccccc3c2)cc1
viability at 10 µM [1]: 106%
viability at 10 µM [2]: 98.3%
viability at 10 µM [3]: 83.8%

SMILES: COc1ccc(C2=CC(=O)O/C2=C\c2ccc(O)c(OC)c2)cc1
viability at 10 µM [1]: 37.8%
IC50 [4]: 300 nM
inhibition at 10 µM [5]: > 50%
viability at 10 µM [2]: 24.1%
IC50 at 72 h [6]: 1900 nM
inhibition at 10 µM [7]: > 50%
viability at 10 µM [3]: 25.2%
inhibition at 10 µM [8]: > 50%
inhibition at 10 µM [9]: > 50%
inhibition at 10 µM [10]: > 50%
IC50 [11]: 4500 nM
IC50 [12]: 600 nM
IC50 [13]: 5400 nM
IC50 [14]: 100 nM
inhibition at 10 µM [15]: > 50%
IC50 [16]: 400 nM

SMILES: COc1ccc(C2=CC(=O)O/C2=C\c2ccc(NC(C)=O)cc2)cc1
viability at 10 µM [1]: 39.2%
IC50 [4]: 1000 nM
inhibition at 10 µM [5]: > 50%
viability at 10 µM [2]: 32.5%
IC50 at 72 h [6]: 5500 nM
inhibition at 10 µM [7]: > 50%
viability at 10 µM [3]: 30.4%
inhibition at 10 µM [8]: > 50%
inhibition at 10 µM [9]: > 50%
inhibition at 10 µM [10]: > 50%
IC50 [11]: 2500 nM
IC50 [12]: 700 nM
IC50 [13]: 3000 nM
IC50 [14]: 6100 nM
inhibition at 10 µM [15]: > 50%
IC50 [16]: 2200 nM

SMILES: COc1ccc(C2=CC(=O)O/C2=C\c2ccc(C)cc2)cc1
viability at 10 µM [1]: 94.1%
viability at 10 µM [2]: 87.3%
viability at 10 µM [3]: 101%

SMILES: O=C1C=C(c2ccccc2)/C(=C/c2ccc(C(=O)O)cc2)O1
viability at 10 µM [1]: 96.5%
viability at 10 µM [2]: 105%
viability at 10 µM [3]: 87.3%

SMILES: COc1ccc(C2=CC(=O)O/C2=C\c2ccc(Br)cc2)cc1
viability at 10 µM [1]: 103%
viability at 10 µM [2]: 107%
viability at 10 µM [3]: 107%

SMILES: O=C1C=C(c2ccccc2)/C(=C/c2ccc3[nH]ccc3c2)O1
viability at 10 µM [1]: 103%
viability at 10 µM [2]: 98.9%
viability at 10 µM [3]: 60.2%

IC50 [17]: 2600 nM
SMILES: O=C1O/C(=C\c2ccc(O)c(Br)c2)C(c2ccc(O)c(Br)c2)=C1Cl

SMILES: COc1ccc(C2=CC(=O)O/C2=C\c2ccc(C(C)(C)C)cc2)cc1
viability at 10 µM [1]: 109%
viability at 10 µM [2]: 98.9%
viability at 10 µM [3]: 60.2%

SMILES: COc1ccc(/C=C2\OC(=O)C=C2c2ccccc2)cc1
viability at 10 µM [1]: 91.2%
viability at 10 µM [2]: 113%
viability at 10 µM [3]: 82.9%

SMILES: COc1ccc(C2=CC(=O)O/C2=C\c2ccc(C(=O)O)c(O)c2)cc1
viability at 10 µM [1]: 106%
viability at 10 µM [2]: 62.8%
viability at 10 µM [3]: 40.7%

IC50 [18]: 10100 nM
SMILES: CC1(C)CCc2cc(/C=C3\OC(=O)C=C3c3ccc(O)cc3)ccc2O1

IC50 [19]: 3100 nM
IC50 [17]: 3100 nM
IC50 [20]: 3100 nM
SMILES: O=C1O/C(=C\c2ccc(O)c(Br)c2)C(c2ccc(O)cc2)=C1Cl

SMILES: COc1ccc(C2=CC(=O)O/C2=C\c2ccc3[nH]ccc3c2)cc1
viability at 10 µM [1]: 39.5%
IC50 [4]: 200 nM
inhibition at 10 µM [5]: > 50%
viability at 10 µM [2]: 23.9%
IC50 at 72 h [6]: 1300 nM
inhibition at 10 µM [7]: > 50%
viability at 10 µM [3]: 25.8%
inhibition at 10 µM [8]: > 50%
inhibition at 10 µM [9]: > 50%
inhibition at 10 µM [10]: > 50%
IC50 [11]: 7800 nM
IC50 [12]: 200 nM
IC50 [13]: 900 nM
IC50 [14]: 1300 nM
inhibition at 10 µM [15]: > 50%
IC50 [16]: 300 nM

SMILES: COc1ccc(/C=C2\OC(=O)C=C2c2ccc(OC)cc2)cc1
viability at 10 µM [1]: 39.1%
IC50 [4]: 5200 nM
inhibition at 10 µM [5]: > 50%
viability at 10 µM [2]: 26.5%
IC50 at 72 h [6]: 3900 nM
inhibition at 10 µM [7]: > 50%
viability at 10 µM [3]: 25.9%
inhibition at 10 µM [8]: > 50%
inhibition at 10 µM [9]: > 50%
inhibition at 10 µM [10]: > 50%
IC50 [11]: 11900 nM
IC50 [12]: 2200 nM
IC50 [13]: 6200 nM
IC50 [14]: 4300 nM
inhibition at 10 µM [15]: > 50%
IC50 [16]: 3700 nM

SMILES: COc1ccc(C2=CC(=O)O/C2=C\c2ccc(N(C)C)cc2)cc1
viability at 10 µM [1]: 101%
viability at 10 µM [2]: 87.2%
viability at 10 µM [3]: 92.2%

SMILES: Cc1ccc(/C=C2\OC(=O)C=C2c2ccccc2)cc1
viability at 10 µM [1]: 101%
viability at 10 µM [2]: 104%
viability at 10 µM [3]: 87.4%

SMILES: COc1cccc2c1C(=O)c1c(O)c3c(c(O)c1C2=O)C[C@@](O)(C(=O)CO)C[C@@H]3O[C@H]1C[C@H](N)[C@H](O)[C@H](C)O1 [DOXORUBICIN]
viability at 10 µM [1]: 20.3%
IC50 [4]: 200 nM
viability at 10 µM [2]: 12.2%
IC50 at 72 h [6]: 7200 nM
viability at 10 µM [3]: 5.8%
IC50 [11]: 300 nM
IC50 [12]: 200 nM
IC50 [13]: 300 nM
IC50 [16]: 200 nM

IC50 [18]: 12800 nM
SMILES: CC(C)=CCc1cc(/C=C2\OC(=O)C=C2c2ccc(O)cc2)ccc1O

SMILES: COc1ccc(C2=CC(=O)O/C2=C\c2ccccc2)cc1
viability at 10 µM [1]: 52%
IC50 [4]: 1000 nM
inhibition at 10 µM [5]: > 50%
viability at 10 µM [2]: 32.5%
IC50 at 72 h [6]: 1600 nM
inhibition at 10 µM [7]: > 50%
viability at 10 µM [3]: 29.7%
inhibition at 10 µM [8]: > 50%
inhibition at 10 µM [9]: > 50%
inhibition at 10 µM [10]: > 50%
IC50 [11]: 13700 nM
IC50 [12]: 1800 nM
IC50 [13]: 5000 nM
IC50 [14]: 1200 nM
inhibition at 10 µM [15]: > 50%
IC50 [16]: 1900 nM

IC50 [19]: 8000 nM
IC50 [17]: 8000 nM
IC50 [20]: 8000 nM
SMILES: O=C1O/C(=C\c2cc(Br)c(O)c(Br)c2)C(c2cc(Br)c(O)c(Br)c2)=C1Cl

SMILES: COc1ccc(C2=CC(=O)O/C2=C\c2ccc(C(C)C)cc2)cc1
viability at 10 µM [1]: 97.4%
viability at 10 µM [2]: 85.9%
viability at 10 µM [3]: 102%

SMILES: COc1ccc(C2=CC(=O)O/C2=C\c2ccc(O)c(O)c2)cc1
viability at 10 µM [1]: 51.9%
IC50 [4]: 2800 nM
inhibition at 10 µM [5]: > 50%
viability at 10 µM [2]: 31.7%
IC50 at 72 h [6]: 11300 nM
inhibition at 10 µM [7]: > 50%
viability at 10 µM [3]: 26.1%
inhibition at 10 µM [8]: > 50%
inhibition at 10 µM [9]: > 50%
inhibition at 10 µM [10]: > 50%
IC50 [11]: 23800 nM
IC50 [12]: 1300 nM
IC50 [13]: 8800 nM
IC50 [14]: 2500 nM
inhibition at 10 µM [15]: > 50%
IC50 [16]: 3400 nM

SMILES: O=C1C=C(c2ccccc2)/C(=C/c2ccc(O)cc2)O1
viability at 10 µM [1]: 92.4%
viability at 10 µM [2]: 87.7%
viability at 10 µM [3]: 87.1%
